Key:
Assay in all cases: Pre-emergent herbicidal activity (Table A)
Format in all cases: in vivo
[1] = test system: Cocklebur; details: Xanthium strumarium, pre-emergence, Cobu, 11.2 kg/ha, 10-14 days, read-out: herbicidal rating (% inhibition)
Experimental: (§1) The herbicidal ratings used in Tables A and B were assigned according to a scale based on the percent inhibition of each plant species. The herbicide rating symbols in Tables A and B are defined as follows: […]
(§2) One set of pre-emergent tests was conducted as follows:
(§3) Topsoil was placed in a pan and compacted to a depth of 0.95 to 1.27 cm. from the top of the pan. A predetermined number of seeds of each of several monocotyledonous and dicotyledonous annual plant species and/or vegetative propagules of various perennial plant species were placed on top of the soil. The soil required to level fill a pan after seeding or adding vegetative propagules was weighed into another pan. A known amount of the test compound dissolved or suspended in an organic solvent or water and applied in acetone or water as a carrier was thoroughly mixed with this cover soil, and the herbicide/soil mixture was used as a cover layer for the previously prepared pan.
(§4) The plant species usually regarded as weeds which were utilized in one set of pre-emergent activity tests, the data for which are shown in Table A, are identified by letter headings printed diagonally above the columns according to the following legend: […]

[2] = test system: Morningglory; details: Ipomoea, pre-emergence, Mogl, 11.2 kg/ha, 10-14 days, read-out: herbicidal rating (% inhibition)
Experimental: as §1, §2, §3, §4

[3] = test system: Barnyardgrass; details: Echinochloa crus-galli, pre-emergence, Bygr, 11.2 kg/ha, 10-14 days, read-out: herbicidal rating (% inhibition)
Experimental: as §1, §2, §3, §4

[4] = test system: Downy Brome; details: Bromus tectorum, pre-emergence, Dobr, 11.2 kg/ha, 10-14 days, read-out: herbicidal rating (% inhibition)
Experimental: as §1, §2, §3, §4

[5] = test system: Velvetleaf; details: Abutilon theophrasti, pre-emergence, Vele, 11.2 kg/ha, 10-14 days, read-out: herbicidal rating (% inhibition)
Experimental: as §1, §2, §3, §4

[6] = test system: Quackgrass; details: pre-emergence, Rhqg, 11.2 kg/ha, 10-14 days, read-out: herbicidal rating (% inhibition)
Experimental: as §1, §2, §3, §4

[7] = test system: Common Lambsquarters; details: Chenopodium album, pre-emergence, Colq, 11.2 kg/ha, 10-14 days, read-out: herbicidal rating (% inhibition)
Experimental: as §1, §2, §3, §4

[8] = test system: Yellow Nutsedge; details: Cyperus, pre-emergence, Yens, 11.2 kg/ha, 10-14 days, read-out: herbicidal rating (% inhibition)
Experimental: as §1, §2, §3, §4

[9] = test system: Canada thistle; details: Cirsium arvense, pre-emergence, Cath, 11.2 kg/ha, 10-14 days, read-out: herbicidal rating (% inhibition)
Experimental: as §1, §2, §3, §4

[10] = test system: Rhizome Johnsongrass; details: Sorghum halepense, pre-emergence, Rhjg, 11.2 kg/ha, 10-14 days, read-out: herbicidal rating (% inhibition)
Experimental: as §1, §2, §3, §4

[11] = test system: Pennsylvania Smartweed; details: pre-emergence, Pesw, 11.2 kg/ha, 10-14 days, read-out: herbicidal rating (% inhibition)
Experimental: as §1, §2, §3, §4

SMILES | inhibition at 11200 g/ha [1] [%] | inhibition at 11200 g/ha [2] [%] | inhibition at 11200 g/ha [3] [%] | inhibition at 11200 g/ha [4] [%] | inhibition at 11200 g/ha [5] [%] | inhibition at 11200 g/ha [6] [%] | inhibition at 11200 g/ha [7] [%] | inhibition at 11200 g/ha [8] [%] | inhibition at 11200 g/ha [9] [%] | inhibition at 11200 g/ha [10] [%] | inhibition at 11200 g/ha [11] [%]
COC(=O)c1c(OC)nc(C(F)(F)F)c(C(=O)Cl)c1CC(C)C [Compound 84, 3-pyridinecarboxylic acid, 5-(chlorocarbonyl)-2-methoxy-4-(2-methylpropyl)-6-(trifluoromethyl)-, methyl ester] | 0 to 24 | 25 to 49 | 75 to 100 | 75 to 100 | 0 to 24 | 0 to 24 | 75 to 100 | 0 to 24 | 75 to 100 | 0 to 24 | –
CCOc1nc(C(F)(F)F)c(C(=O)OC)c(CC(C)C)c1C(=O)OC [Compound 6, 3,5-pyridinedicarboxylic acid, 2-ethoxy-4-(2-methylpropyl)-6-(trifluoromethyl)-, dimethyl ester] | 25 to 49 | 75 to 100 | 75 to 100 | – | 75 to 100 | 75 to 100 | 75 to 100 | 25 to 49 | 75 to 100 | 75 to 100 | 75 to 100
CCCOc1nc(C(F)(F)F)c(C(=O)OC)c(CC(C)C)c1C(=O)OCC [Compound 7, 3,5-pyridinedicarboxylic acid, 4-(2-methylpropyl)-2-propyloxy-6-(trifluoromethyl)-,3-ethyl 5-methyl ester] | 0 to 24 | 0 to 24 | 75 to 100 | – | 0 to 24 | 0 to 24 | 75 to 100 | 0 to 24 | 0 to 24 | 0 to 24 | 25 to 49
COC(=O)c1c(OC)nc(C(F)(F)F)c(C=O)c1CC(C)C [Compound 79, 3-pyridinecarboxylic acid, 5-formy1-2-methoxy-4-(2-methylpropyl)-6-(trifluoromethyl)-, methyl ester] | 0 to 24 | 50 to 74 | 75 to 100 | 75 to 100 | 50 to 74 | 75 to 100 | 75 to 100 | 0 to 24 | 75 to 100 | – | 75 to 100
COC(=O)c1c(OCC#N)nc(C(F)(F)F)c(C(=O)OC)c1CC(C)C [Compound 80, 3,5-pyridinedicarboxylic acid, 2-(cyanomethoxy)-4-(2-methylpropyl)-6-(trifluoromethyl)-, dimethyl ester] | 25 to 49 | 75 to 100 | 75 to 100 | 75 to 100 | 75 to 100 | 25 to 49 | 75 to 100 | 50 to 74 | 75 to 100 | – | 75 to 100
COC(=O)c1c(C(F)(F)F)nc(OC)c(N)c1CC(C)C [Compound 32, 3-pyridinecarboxylic acid, 5-amino-6-methoxy-4-(2-methylpropyl)-2-(trifluoromethyl)-, methyl ester] | 0 to 24 | 0 to 24 | 75 to 100 | 0 to 24 | 0 to 24 | 0 to 24 | 75 to 100 | 0 to 24 | 0 to 24 | – | 50 to 74
COC(=O)c1c(OC)nc(C(F)(F)F)c(C(=O)OC)c1CC(=O)O [Compound 13, 3,5-pyridinedicarboxylic acid, 4-(carboxymethyl)-2-methoxy-6-(trifluoromethyl)-, dimethyl ester] | 0 to 24 | 0 to 24 | 0 to 24 | 0 to 24 | 0 to 24 | 0 to 24 | 0 to 24 | 0 to 24 | 0 to 24 | 0 to 24 | –
CCOc1nc(C(F)(F)F)c(C(=O)OC)c(CC(C)C)c1C(=O)SC [Compound 8, 3-pyridinecarboxylic acid, 6-ethoxy-4-(2-methylpropyl)-5-[(methylthio)carbonyl]-2-(trifluoromethyl)-, methyl ester] | 0 to 24 | 75 to 100 | 75 to 100 | – | 75 to 100 | 75 to 100 | 75 to 100 | 0 to 24 | 0 to 24 | 0 to 24 | 75 to 100
C#CCOC(=O)c1c(C(F)(F)F)nc(OC)c(C(=O)OC)c1CC(C)C [Compound 82, 3,5-pyridinedicarboxylic acid, 2-methoxy-4-(2-methylpropyl)-6-(trifluoromethyl)-, 3-methyl 5-(2-propynyl)ester] | 50 to 74 | 75 to 100 | 75 to 100 | 75 to 100 | 75 to 100 | 50 to 74 | 75 to 100 | 25 to 49 | 75 to 100 | – | 75 to 100
COCc1c(C(=O)OC)c(OC)nc(C(F)(F)F)c1C(=O)OC [Compound 88, 3,5-pyridinedicarboxylic acid, 2-methoxy-4-(methoxymethyl)-6-(trifluoromethyl)-, dimethyl ester] | 0 to 24 | 25 to 49 | 75 to 100 | 25 to 49 | 25 to 49 | 0 to 24 | 50 to 74 | 0 to 24 | 0 to 24 | 0 to 24 | –
COC(=O)c1c(OC)nc(C(F)(F)F)c(C(=O)OC)c1CBr [Compound 87, 3,5-pyridinedicarboxylic acid, 4-(bromomethyl)-2-methoxy-6-(trifluoromethyl)-, dimethyl ester] | 0 to 24 | 0 to 24 | 0 to 24 | 0 to 24 | 0 to 24 | 0 to 24 | 50 to 74 | 0 to 24 | 0 to 24 | 0 to 24 | –
COC(=O)c1c(OC)nc(C(F)(F)F)c(C(=O)OCCF)c1CC(C)C [Compound 81, 3,5-pyridinedicarboxylic acid, 2-methoxy-4-(2-methylpropyl)-6-(trifluoromethyl)-, 5-(2-fluoroethyl) 3-methyl ester] | 75 to 100 | 75 to 100 | 75 to 100 | 75 to 100 | 75 to 100 | 75 to 100 | 75 to 100 | 75 to 100 | 75 to 100 | – | 75 to 100
